Experimental data reported in article PMC10562414, “GLP-1R signaling neighborhoods associate with the susceptibility to adverse drug reactions of incretin mimetics” (Nature Communications, 2023).

Assays:
GLP-1R [1] = target: T1, GLP-1R (Homo sapiens, UniProt P43220); test: ebBRET pathway activation (15 pathways) at the Golgi apparatus (tdrGFP-Giantin); assay type: cell-based; details: for Efficacy (normalized) / Potency (logEC50) / Emax: Golgi apparatus
GLP-1R [2] = target: T1, GLP-1R; test: Inverted Gini coefficients for pathway selectivity (efficacy, potency) per compartment
Experimental: Inverted Gini coefficients depict differences in drug-induced pathway selectivity for efficacy and potency. Inverted Gini coefficients were calculated to compare the similarities among the 15 tested pathways (Gs, Gq, G11 , G14, G15, G12, G13, Gi1, Gi2, Gi3, GoA, GoB, Gz, GRK/Gb g and bARR) for efficacy (a) and potency (b) across the four compartments included in this study (PM, EE, GA, ER) where 1 represents equality and 0 represents dissimilarity.

GLP-1R [3] = target: T1, GLP-1R; test: ebBRET pathway activation (15 transducers), normalized efficacy and potency, Supplementary Fig. 11 (cellular compartment not given); assay type: cell-based
GLP-1R [4] = target: T1, GLP-1R; test: ebBRET pathway activation (15 pathways), Supplementary Fig. 14; compartment not given; assay type: cell-based

T1 sequence (P43220 24-463): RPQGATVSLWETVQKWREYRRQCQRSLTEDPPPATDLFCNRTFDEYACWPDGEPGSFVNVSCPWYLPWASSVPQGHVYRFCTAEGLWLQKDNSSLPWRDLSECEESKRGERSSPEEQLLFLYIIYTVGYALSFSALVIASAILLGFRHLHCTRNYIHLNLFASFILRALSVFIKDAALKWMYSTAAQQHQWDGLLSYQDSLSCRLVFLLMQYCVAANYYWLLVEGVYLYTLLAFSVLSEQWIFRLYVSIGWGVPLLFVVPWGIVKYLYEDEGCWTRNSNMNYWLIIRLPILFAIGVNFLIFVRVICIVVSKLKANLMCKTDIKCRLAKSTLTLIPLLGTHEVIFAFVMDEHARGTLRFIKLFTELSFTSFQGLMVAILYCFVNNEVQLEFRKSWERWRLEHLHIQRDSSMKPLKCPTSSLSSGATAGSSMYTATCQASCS

N#Cc1ccc(COc2cccc(C3CCN(Cc4nc5ccc(C(=O)O)cc5n4C[C@@H]4CCO4)CC3)n2)c(F)c1 [Danuglipron]
Efficacy (normalized) (GLP-1R [1]; GRK2/Gβγ): 0 | Potency (logEC50) (GLP-1R [1]; GRK2/Gβγ): 0 | Emax (GLP-1R [1]; GRK/Gβγ): 0 | Efficacy (normalized) (GLP-1R [1]; Gα11): 0 | Emax (GLP-1R [1]; Gα11): 0 | Potency (logEC50) (GLP-1R [1]; Gα11): 0 | Efficacy (normalized) (GLP-1R [1]; Gα12): 0 | Emax (GLP-1R [1]; Gα12): 0 | Potency (logEC50) (GLP-1R [1]; Gα12): 0 | Efficacy (normalized) (GLP-1R [1]; Gα13): 0 | Emax (GLP-1R [1]; Gα13): 0 | Potency (logEC50) (GLP-1R [1]; Gα13): 0 | Efficacy (normalized) (GLP-1R [1]; Gα14): 0 | Emax (GLP-1R [1]; Gα14): 0 | Potency (logEC50) (GLP-1R [1]; Gα14): 0 | Efficacy (normalized) (GLP-1R [1]; Gα15): 0 | Emax (GLP-1R [1]; Gα15): 0 | Potency (logEC50) (GLP-1R [1]; Gα15): 0 | Efficacy (normalized) (GLP-1R [1]; Gαi1): 0 | Emax (GLP-1R [1]; Gαi1): 0 | Potency (logEC50) (GLP-1R [1]; Gαi1): 0 | Efficacy (normalized) (GLP-1R [1]; Gαi2): 0 | Emax (GLP-1R [1]; Gαi2): 0 | Potency (logEC50) (GLP-1R [1]; Gαi2): 0 | Efficacy (normalized) (GLP-1R [1]; Gαi3): 0 | Emax (GLP-1R [1]; Gαi3): 0 | Potency (logEC50) (GLP-1R [1]; Gαi3): 0 | Efficacy (normalized) (GLP-1R [1]; GαoA): 0 | Emax (GLP-1R [1]; GαoA): 0 | Potency (logEC50) (GLP-1R [1]; GαoA): 0 | Efficacy (normalized) (GLP-1R [1]; GαoB): 0 | Emax (GLP-1R [1]; GαoB): 0 | Potency (logEC50) (GLP-1R [1]; GαoB): 0 | Efficacy (normalized) (GLP-1R [1]; Gαq): 0 | Emax (GLP-1R [1]; Gαq): 0 | Potency (logEC50) (GLP-1R [1]; Gαq): 0 | Efficacy (normalized) (GLP-1R [1]; Gαs): 0.8077 | Emax (GLP-1R [1]; Gαs): 0.9498 | Potency (logEC50) (GLP-1R [1]; Gαs): 0.7638 | Efficacy (normalized) (GLP-1R [1]; Gαz): 1 | Emax (GLP-1R [1]; Gαz): 0.06827 | Potency (logEC50) (GLP-1R [1]; Gαz): 0.517 | Emax (GLP-1R [1]; βARR): 0.7121 | Efficacy (normalized) (GLP-1R [1]; βARR2): 0.4942 | Potency (logEC50) (GLP-1R [1]; βARR2): 0.4339 | mGs recruitment at the Golgi apparatus, in words (GLP-1R [1]; Rluc8-mGs, tdrGFP-Giantin, 60 min, n = 3): induced a strong response at the Golgi apparatus | 1 - Gini (GLP-1R [2]; Early endosomes, Supplementary Fig. 18a): 0.2929 | 1 - Gini (GLP-1R [2]; Early endosomes, Supplementary Fig. 18b): 0.7742 | 1 - Gini (GLP-1R [2]; Endoplasmic reticulum, Supplementary Fig. 18a): 0.09 | 1 - Gini (GLP-1R [2]; Endoplasmic reticulum, Supplementary Fig. 18b): 0.8902 | 1 - Gini (GLP-1R [2]; Golgi apparatus, Supplementary Fig. 18a): 0.1115 | 1 - Gini (GLP-1R [2]; Golgi apparatus, Supplementary Fig. 18b): 0.854 | 1 - Gini (GLP-1R [2]; Plasma membrane, Supplementary Fig. 18a): 0.403 | 1 - Gini (GLP-1R [2]; Plasma membrane, Supplementary Fig. 18b): 0.7941 | Efficacy (normalized), GRK2/Gβγ (GLP-1R [3]; Supplementary Fig. 11a, GRK2/Gβγ): 0.507 | Efficacy (normalized), Gα11 (GLP-1R [3]; Supplementary Fig. 11a, Gα11): 0 | Efficacy (normalized), Gα12 (GLP-1R [3]; Supplementary Fig. 11a, Gα12): 0 | Efficacy (normalized), Gα13 (GLP-1R [3]; Supplementary Fig. 11a, Gα13): 0 | Efficacy (normalized), Gα14 (GLP-1R [3]; Supplementary Fig. 11a, Gα14): 0.9516 | Efficacy (normalized), Gα15 (GLP-1R [3]; Supplementary Fig. 11a, Gα15): 0 | Efficacy (normalized), Gαi1 (GLP-1R [3]; Supplementary Fig. 11a, Gαi1): 0 | Efficacy (normalized), Gαi2 (GLP-1R [3]; Supplementary Fig. 11a, Gαi2): 0 | Efficacy (normalized), Gαi3 (GLP-1R [3]; Supplementary Fig. 11a, Gαi3): 0 | Efficacy (normalized), GαoA (GLP-1R [3]; Supplementary Fig. 11a, GαoA): 0.4649 | Efficacy (normalized), GαoB (GLP-1R [3]; Supplementary Fig. 11a, GαoB): 0.7256 | Efficacy (normalized), Gαq (GLP-1R [3]; Supplementary Fig. 11a, Gαq): 0 | Efficacy (normalized), Gαs (GLP-1R [3]; Supplementary Fig. 11a, Gαs): 0 | Efficacy (normalized), Gαz (GLP-1R [3]; Supplementary Fig. 11a, Gαz): 0.5189 | Efficacy (normalized), βARR2 (GLP-1R [3]; Supplementary Fig. 11a, βARR2): 0.458 | Potency (logEC50), Gα11 (GLP-1R [3]; Supplementary Fig. 11b, Gα11): 0 | Potency (logEC50), Gα12 (GLP-1R [3]; Supplementary Fig. 11b, Gα12): 0 | Potency (logEC50), Gα13 (GLP-1R [3]; Supplementary Fig. 11b, Gα13): 0 | Potency (logEC50), Gα14 (GLP-1R [3]; Supplementary Fig. 11b, Gα14): 0.7414 | Potency (logEC50), Gα15 (GLP-1R [3]; Supplementary Fig. 11b, Gα15): 0 | Potency (logEC50), Gαi1 (GLP-1R [3]; Supplementary Fig. 11b, Gαi1): 0 | Potency (logEC50), Gαi2 (GLP-1R [3]; Supplementary Fig. 11b, Gαi2): 0 | Potency (logEC50), Gαi3 (GLP-1R [3]; Supplementary Fig. 11b, Gαi3): 0 | Potency (logEC50), GαoA (GLP-1R [3]; Supplementary Fig. 11b, GαoA): 0.573 | Potency (logEC50), GαoB (GLP-1R [3]; Supplementary Fig. 11b, GαoB): 0.2577 | Potency (logEC50), Gαq (GLP-1R [3]; Supplementary Fig. 11b, Gαq): 0 | Potency (logEC50), Gαs (GLP-1R [3]; Supplementary Fig. 11b, Gαs): 0 | Potency (logEC50), Gαz (GLP-1R [3]; Supplementary Fig. 11b, Gαz): 0.2291 | Potency (logEC50), βARR2 (GLP-1R [3]; Supplementary Fig. 11b, βARR2): 0.384 | Efficacy (normalized), GRK2/Gβγ (GLP-1R [4]; GRK2/Gβγ, Supplementary Fig. 14a, normalized): 0 | Efficacy (normalized), Gα11 (GLP-1R [4]; Gα11, Supplementary Fig. 14a, normalized): 0 | Potency (logEC50), Gα11 (GLP-1R [4]; Gα11, Supplementary Fig. 14b): 0 | Efficacy (normalized), Gα12 (GLP-1R [4]; Gα12, Supplementary Fig. 14a, normalized): 0 | Potency (logEC50), Gα12 (GLP-1R [4]; Gα12, Supplementary Fig. 14b): 0 | Efficacy (normalized), Gα13 (GLP-1R [4]; Gα13, Supplementary Fig. 14a, normalized): 0 | Potency (logEC50), Gα13 (GLP-1R [4]; Gα13, Supplementary Fig. 14b): 0 | Efficacy (normalized), Gα14 (GLP-1R [4]; Gα14, Supplementary Fig. 14a, normalized): 0 | Potency (logEC50), Gα14 (GLP-1R [4]; Gα14, Supplementary Fig. 14b): 0 | Efficacy (normalized), Gα15 (GLP-1R [4]; Gα15, Supplementary Fig. 14a, normalized): 0 | Potency (logEC50), Gα15 (GLP-1R [4]; Gα15, Supplementary Fig. 14b): 0 | Efficacy (normalized), Gαi1 (GLP-1R [4]; Gαi1, Supplementary Fig. 14a, normalized): 0 | Potency (logEC50), Gαi1 (GLP-1R [4]; Gαi1, Supplementary Fig. 14b): 0 | Efficacy (normalized), Gαi2 (GLP-1R [4]; Gαi2, Supplementary Fig. 14a, normalized): 0 | Potency (logEC50), Gαi2 (GLP-1R [4]; Gαi2, Supplementary Fig. 14b): 0 | Efficacy (normalized), Gαi3 (GLP-1R [4]; Gαi3, Supplementary Fig. 14a, normalized): 0 | Potency (logEC50), Gαi3 (GLP-1R [4]; Gαi3, Supplementary Fig. 14b): 0 | Efficacy (normalized), GαoA (GLP-1R [4]; GαoA, Supplementary Fig. 14a, normalized): 0 | Potency (logEC50), GαoA (GLP-1R [4]; GαoA, Supplementary Fig. 14b): 0 | Efficacy (normalized), GαoB (GLP-1R [4]; GαoB, Supplementary Fig. 14a, normalized): 0 | Potency (logEC50), GαoB (GLP-1R [4]; GαoB, Supplementary Fig. 14b): 0 | Efficacy (normalized), Gαq (GLP-1R [4]; Gαq, Supplementary Fig. 14a, normalized): 0 | Potency (logEC50), Gαq (GLP-1R [4]; Gαq, Supplementary Fig. 14b): 0 | Efficacy (normalized), Gαs (GLP-1R [4]; Gαs, Supplementary Fig. 14a, normalized): 0.8077 | Potency (logEC50), Gαs (GLP-1R [4]; Gαs, Supplementary Fig. 14b): 0.7638 | Efficacy (normalized), Gαz (GLP-1R [4]; Gαz, Supplementary Fig. 14a, normalized): 1 | Potency (logEC50), Gαz (GLP-1R [4]; Gαz, Supplementary Fig. 14b): 0.517 | Efficacy (normalized), βARR2 (GLP-1R [4]; βARR2, Supplementary Fig. 14a, normalized): 0.4942 | Potency (logEC50), βARR2 (GLP-1R [4]; βARR2, Supplementary Fig. 14b): 0.4339
